The text below walks through data of patent US20240109917A1 (ACTELION PHARMACEUTICALS LTD, priority 2020, published 2024).

Assay [1] addresses Tb-labeled inactive PDGFRβ (Homo sapiens (Human), UniProt P09619). The experiment in a line: PDGFRβ LanthaScreen Assay. It counts as binding. The conditions noted are these: read-out: PDGFR Lantha IC50.
Another assay concerns the target PDGFRβ (Rattus norvegicus (Rat), UniProt Q05030). The experiment in a line: PDGFRβ Cellular Assay (PDGFRb P-Y751 HTRF in A10 cells stimulated with PDGF-BB). Format: cell-based. As to conditions: read-out: PDGFR Cellular IC50. A digest of the protocol:
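Rat A10 cells, plated overnight, were treated with compound for 3 hours, then stimulated with PDGF-BB (working stock 100 ng/mL in 10% FBS medium). After lysis, PDGFRβ P-Y751 was detected by HTRF.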
(Time-resolved FRET reads energy transfer from a long-lived donor to a nearby acceptor.)

Chain of PDGFRβ (Q05030 32-1097): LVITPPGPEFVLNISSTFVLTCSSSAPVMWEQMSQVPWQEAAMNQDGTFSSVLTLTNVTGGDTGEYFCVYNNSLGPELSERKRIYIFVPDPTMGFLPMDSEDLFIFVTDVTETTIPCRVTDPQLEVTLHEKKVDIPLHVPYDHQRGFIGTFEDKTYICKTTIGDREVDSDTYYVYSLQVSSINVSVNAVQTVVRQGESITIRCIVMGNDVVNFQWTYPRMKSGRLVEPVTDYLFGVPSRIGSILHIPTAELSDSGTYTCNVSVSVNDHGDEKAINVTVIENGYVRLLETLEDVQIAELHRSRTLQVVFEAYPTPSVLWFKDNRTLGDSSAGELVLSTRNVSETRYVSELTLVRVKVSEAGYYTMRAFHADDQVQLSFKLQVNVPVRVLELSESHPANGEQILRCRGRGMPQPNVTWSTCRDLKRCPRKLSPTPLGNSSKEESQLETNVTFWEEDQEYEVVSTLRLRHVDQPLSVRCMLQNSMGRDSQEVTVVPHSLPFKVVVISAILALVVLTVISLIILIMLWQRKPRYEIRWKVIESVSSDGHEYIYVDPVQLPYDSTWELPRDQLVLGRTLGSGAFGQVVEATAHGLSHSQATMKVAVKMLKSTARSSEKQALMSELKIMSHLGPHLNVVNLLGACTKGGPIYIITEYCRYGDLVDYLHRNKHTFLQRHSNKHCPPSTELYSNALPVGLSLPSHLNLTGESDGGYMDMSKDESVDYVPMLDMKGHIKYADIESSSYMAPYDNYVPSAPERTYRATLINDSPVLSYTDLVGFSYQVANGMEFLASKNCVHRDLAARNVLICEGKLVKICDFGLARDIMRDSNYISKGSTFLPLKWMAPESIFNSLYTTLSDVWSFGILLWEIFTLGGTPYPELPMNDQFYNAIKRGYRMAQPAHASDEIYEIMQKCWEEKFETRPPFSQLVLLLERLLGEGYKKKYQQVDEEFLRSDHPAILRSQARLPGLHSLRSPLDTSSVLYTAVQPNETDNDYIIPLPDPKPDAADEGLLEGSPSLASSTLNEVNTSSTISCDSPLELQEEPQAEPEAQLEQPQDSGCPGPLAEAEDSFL
Chain of Tb-labeled inactive PDGFRβ (P09619 33-1106): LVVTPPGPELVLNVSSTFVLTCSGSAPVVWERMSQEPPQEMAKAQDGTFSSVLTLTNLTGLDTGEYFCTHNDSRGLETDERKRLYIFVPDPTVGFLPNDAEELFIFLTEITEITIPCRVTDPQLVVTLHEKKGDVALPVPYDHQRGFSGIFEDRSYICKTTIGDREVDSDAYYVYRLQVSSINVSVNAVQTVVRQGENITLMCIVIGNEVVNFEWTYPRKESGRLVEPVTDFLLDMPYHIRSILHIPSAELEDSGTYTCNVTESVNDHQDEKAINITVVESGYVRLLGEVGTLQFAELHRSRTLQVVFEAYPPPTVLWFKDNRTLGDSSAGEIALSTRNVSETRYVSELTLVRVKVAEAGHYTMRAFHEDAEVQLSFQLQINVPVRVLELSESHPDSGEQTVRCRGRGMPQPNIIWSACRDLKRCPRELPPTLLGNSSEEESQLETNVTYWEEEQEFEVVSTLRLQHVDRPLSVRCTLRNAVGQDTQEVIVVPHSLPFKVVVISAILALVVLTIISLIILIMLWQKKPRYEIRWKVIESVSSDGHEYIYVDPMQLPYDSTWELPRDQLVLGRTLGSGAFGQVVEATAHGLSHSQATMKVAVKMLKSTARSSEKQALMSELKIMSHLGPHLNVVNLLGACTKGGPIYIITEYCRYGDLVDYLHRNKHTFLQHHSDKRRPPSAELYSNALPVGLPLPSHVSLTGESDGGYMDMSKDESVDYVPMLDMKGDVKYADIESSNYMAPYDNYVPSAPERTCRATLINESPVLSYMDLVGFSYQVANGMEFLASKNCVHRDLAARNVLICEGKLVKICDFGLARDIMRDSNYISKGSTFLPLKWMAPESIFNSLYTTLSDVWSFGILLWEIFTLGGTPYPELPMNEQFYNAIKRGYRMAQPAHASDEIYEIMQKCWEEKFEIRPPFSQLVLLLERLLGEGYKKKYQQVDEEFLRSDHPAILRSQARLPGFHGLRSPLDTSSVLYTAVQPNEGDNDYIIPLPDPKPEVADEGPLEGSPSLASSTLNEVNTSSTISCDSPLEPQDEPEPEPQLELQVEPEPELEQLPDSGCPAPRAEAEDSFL

As for `Cc1ncc(C(=O)NCCN2Cc3ncsc3C2)cc1NC(=O)c1cnn2cc(-c3cnn(C)c3)sc12` [Example 111, N-(5-((2-(4H-pyrrolo[3,4-d]thiazol-5 (6H)-yl)ethyl)carbamoyl)-2-methylpyridin-3-yl)-2-(1-methyl-1H-pyrazol-4-yl)pyrazolo[5,1-b]thiazole-7-carboxamide], the IC50 (commonly the concentration that inhibits the measured activity by half) in assay [1] is 0.0364 µM; on PDGFRβ, 0.294 µM.
In the case of `Cc1ncc(C(=O)NCCN2CC3COCC3C2)cc1NC(=O)c1cnn2cc(-c3cnn(C)c3)sc12` (stereo not drawn) [Example 112, 2-(1-methyl-1H-pyrazol-4-yl)-N-(2-methyl-5-((2-(tetrahydro-1H-furo[3,4-c]pyrrol-5 (3H)-yl)ethyl)carbamoyl)pyridin-3-yl)pyrazolo[5,1-b]thiazole-7-carboxamide], the results for the IC50 (in assay [1]; on PDGFRβ) were 0.0126 µM and 0.159 µM, respectively.
With `Cc1ncc(C(=O)NCCN2CCC3(CCC3)C2)cc1NC(=O)c1cnn2cc(-c3cnn(C)c3)sc12` [Example 113, N-(5-((2-(6-azaspiro[3.4]octan-6-yl)ethyl)carbamoyl)-2-methylpyridin-3-yl)-2-(1-methyl-1H-pyrazol-4-yl)pyrazolo[5,1-b]thiazole-7-carboxamide], the IC50 in assay [1] amounted to 0.0014 µM; at PDGFRβ, 0.0115 µM.
On the same counts, the results for `Cc1ncc(C(=O)NCCN2CCCC23COC3)cc1NC(=O)c1cnn2cc(-c3cnn(C)c3)sc12` [Example 114, N-(5-((2-(2-oxa-5-azaspiro[3.4]octan-5-yl)ethyl)carbamoyl)-2-methylpyridin-3-yl)-2-(1-methyl-1H-pyrazol-4-yl)pyrazolo[5,1-b]thiazole-7-carboxamide] are 0.0046 µM and 0.0276 µM.
Taken in the same sequence, the figures for `COCCN(CCNC(=O)c1cnc(C)c(NC(=O)c2cnn3cc(-c4cnn(C)c4)sc23)c1)C1CCC1` [Example 115, N-(5-((2-(cyclobutyl(2-methoxyethyl)amino)ethyl)carbamoyl)-2-methylpyridin-3-yl)-2-(1-methyl-1H-pyrazol-4-yl)pyrazolo[5,1-b]thiazole-7-carboxamide] were 0.0047 µM and 0.0133 µM.
On the same counts, the results for `Cc1ncc(C(=O)NCCN2CCC3(CCOC3)C2)cc1NC(=O)c1cnn2cc(-c3cnn(C)c3)sc12` (stereo not drawn) [Example 116, N-(5-((2-(2-oxa-7-azaspiro[4.4]nonan-7-yl)ethyl)carbamoyl)-2-methylpyridin-3-yl)-2-(1-methyl-1H-pyrazol-4-yl)pyrazolo[5,1-b]thiazole-7-carboxamide] are 0.0127 µM and 0.0747 µM.
`Cc1ncc(C(=O)NCCN2CCOCC23CCC3)cc1NC(=O)c1cnn2cc(-c3cnn(C)c3)sc12` [Example 117, N-(5-((2-(8-oxa-5-azaspiro[3.5]nonan-5-yl)ethyl)carbamoyl)-2-methylpyridin-3-yl)-2-(1-methyl-1H-pyrazol-4-yl)pyrazolo[5,1-b]thiazole-7-carboxamide]: the figures for the IC50 (in assay [1]; on PDGFRβ) were 0.0023 µM and 0.0056 µM, respectively.
As to `Cc1ncc(C(=O)NCCN2CCC3(CC3)C2)cc1NC(=O)c1cnn2cc(-c3cnn(C)c3)sc12` [Example 118, N-(5-((2-(5-azaspiro[2.4]heptan-5-yl)ethyl)carbamoyl)-2-methylpyridin-3-yl)-2-(1-methyl-1H-pyrazol-4-yl)pyrazolo[5,1-b]thiazole-7-carboxamide], the results for the IC50 (in assay [1]; on PDGFRβ) were 0.0071 µM and 0.0555 µM, respectively.
Taken in the same sequence, the figures for `Cc1ncc(C(=O)NCCN2CCC(F)(F)CC2)cc1NC(=O)c1cnn2cc(-c3cnn(C)c3)sc12` [Example 119, N-(5-((2-(4,4-difluoropiperidin-1-yl)ethyl)carbamoyl)-2-methylpyridin-3-yl)-2-(1-methyl-1H-pyrazol-4-yl)pyrazolo[5,1-b]thiazole-7-carboxamide] were 0.002 µM and 0.0049 µM.
